The values below come from US7081092B2, “Methods and apparatus for monitoring and quantifying the movement of fluid” (IMCOR Pharmaceutical Company, priority 1994, dated 2006).

Type in all cases: physicochemical
Data set [1] can be described thus: Solubility in water. The source says: (§1) In order to stabilize microbubbles in this fashion and provide desirable harmonic characteristics, the osmotic agent is preferably present in the gas phase of the bubble at a mole fraction concentration of greater than approximately 2%, and more preferably at about 5%, 10%, 25%, 50%, or 100%. The vapor inside the bubble is preferably near saturation under the conditions of examination, preferably at least about 50%, 75% or 100% of the saturation concentration. Thus, for microbubbles used for imaging in a human, the liquid phase of the vapor in the bubble must have a vapor pressure at 37° C. greater than 2% of the pressure inside the bubble (one atmosphere plus the blood pressure of the human being examined plus the pressure caused by the surface tension of the bubble, the LaPlace pressure). This total pressure for 3 micron bubbles could reach 1.5 bar and thus requires the liquid phase of the vapor in the bubble to have a vapor pressure at 37° C. greater than approximately 23 torr. The liquid phase of the vapor should also have a low solubility in water, preferably less than 1% wt./wt.
In such systems, suitable gases are ones that have a solubility/miscibility of their liquid forms with hexane, which is a model for the hydrophobic region of surfactants, of greater than 10% mole/mole at 37° C. […]

Data set [2] is described as follows: Solubility/miscibility of liquid form with hexane. The procedure:
In such systems, suitable gases are ones that have a solubility/miscibility of their liquid forms with hexane, which is a model for the hydrophobic region of surfactants, of greater than 10% mole/mole at 37° C. For gases with a boiling point below 37° C., e.g. butane and perfluorobutane, this measurement must be carried out at elevated pressure. The adsorbing gas should be present in the bubble gas phase at a concentration of more than 2% by mole fraction of the gas mixture and preferably at about 5%, 10%, 25%, 50%, or 100%. The use of fluorinated surfactants with fluorinated gases is preferred. The liquid phase of the adsorbing gas should be relatively insoluble in water, less than 1% wt./wt. solubility/miscibility.

The nature of data set [3]: Vapor pressure at 37° C.
Source text: as §1

For the molecule `FC(F)(F)C(F)(F)C(F)(F)C(F)(F)F` [perfluorobutane], the Water solubility entry in data set [1] is recorded as “less than 1 % wt./wt”. The Solubility in hexane entry in data set [2] is “greater than 10 % mole/mole”.

`FC(F)(F)C(F)(F)C(F)(F)C(F)(F)C(F)(F)C(F)(F)F` [perfluorohexane]: in data set [3], the Vapor pressure entry is reported as “over 23 torr”. For the same molecule, in data set [1], the Water solubility result is reported as “less than 1 % wt./wt”.

On to `FC(F)(F)C(F)(F)C(F)(F)C(F)(F)C(F)(F)F` [perfluoropentane], for which the “Solubility in water and hexane versus criteria for adsorption in surfactant layer” value in data set [2] is on record as “meet the criteria above”.
